Source: the supplement of paper PMC11699113

Tested on: ED cells (E. derm NBM-6, ATCC CCL-57)
Assay: cell viability (ATP, CellTiter-Glo) relative to untreated control (fraction of control); higher = less cytotoxic

Nc1nc(NC2CC2)c2ncn([C@H]3C=C[C@@H](CO)C3)c2n1 [abacavir]
cell viability
Details | 0.5 µM | 2 µM | 5 µM | 10 µM | 25 µM | 50 µM | 80 µM | 100 µM | 200 µM | 300 µM
incubation time: 1h | 1 | 0.999 | 1 | 1 | 1 | 0.999 | 0.994 | 0.99 | 0.983 | 0.982
incubation time: 24h | 1.01 | 1.02 | 1.01 | 1.01 | 0.99 | 0.944 | 0.924 | 0.91 | 0.846 | 0.788
incubation time: 72h | 1.02 | 1.03 | 0.999 | 0.978 | 0.925 | 0.846 | 0.785 | 0.745 | 0.604 | 0.506
incubation time: 144h | 1.04 | 1.02 | 0.992 | 0.949 | 0.884 | 0.816 | 0.754 | 0.735 | 0.596 | 0.458

COC(=O)N[C@H](C(=O)N[C@@H](Cc1ccccc1)[C@@H](O)CN(Cc1ccc(-c2ccccn2)cc1)NC(=O)[C@@H](NC(=O)OC)C(C)(C)C)C(C)(C)C [atazanavir]
cell viability
Details | 0.125 µM | 0.25 µM | 0.5 µM | 2 µM | 10 µM | 20 µM | 50 µM | 80 µM | 100 µM | 124 µM
incubation time: 1h | 1.05 | 1.05 | 1.05 | 1.06 | 1.06 | 1.04 | 1.03 | 1.01 | 1.02 | 1.02
incubation time: 24h | 1.07 | 1.08 | 1.07 | 1.07 | 1.06 | 1.06 | 1.03 | 0.979 | 0.941 | 0.798
incubation time: 72h | 1.09 | 1.12 | 1.1 | 1.1 | 1.13 | 1.12 | 1.09 | 0.802 | 0.416 | 0.0698
incubation time: 144h | 1.02 | 1.05 | 1.03 | 1.03 | 1.07 | 1.07 | 1.04 | 0.554 | 0.0524 | 0.00492

O=C(NCc1c(F)cc(F)cc1F)c1cn2c(c(O)c1=O)C(=O)N1[C@H]3CC[C@H](C3)O[C@@H]1C2 [bictegravir]
cell viability
Details | 0.06 µM | 0.125 µM | 0.325 µM | 2 µM | 5 µM | 10 µM | 20 µM | 30 µM | 42 µM | concentration (µM): C04 (printed 10, out of sequence, likely typo)
incubation time: 1h | 1 | 0.997 | 0.994 | 0.995 | 0.987 | 0.99 | 0.993 | 0.994 | 0.98 | 1
incubation time: 24h | 1.01 | 0.998 | 1.01 | 1.01 | 1.02 | 1.01 | 1.03 | 1.01 | 1 | 1.01
incubation time: 72h | 1.07 | 1.09 | 1.1 | 1.1 | 1.11 | 1.11 | 1.08 | 1.05 | 0.997 | 1.09
incubation time: 144h | 1.07 | 1.06 | 1.07 | 1.06 | 1.06 | 1.05 | 1.01 | 0.972 | 0.952 | 1.07
